Laboratory results published in patent publication US20260083865A1, “PROSTATE SPECIFIC MEMBRANE ANTIGEN (PSMA) LIGANDS AND USE THEREOF” (priority 2022, published 2026).
Like-named read-outs stand apart in the source and are kept apart here. Numbered stars: 1 amine (or outer) side, 2 acyl side, 3 side chain; on linkers, the order of the positions; unused ones are H or OH. Bridge positions count the residues as written; N and C are the ends. Square brackets hold non-standard residues; d marks the D form. Peptide text beside a SMILES is read from it. * marks the point of attachment. Acetyl(1-DOTA-4-piperidyl) = O=C(O)CN1CCN(CC(=O)O)CCN(CC(=O)N2CCC(CC(=O)*)CC2)CCN(CC(=O)O)CC1; DOTA = O=C(O)CN1CCN(CC(=O)O)CCN(CC(=O)*)CCN(CC(=O)O)CC1; Phe(4-Cl) = N[C@@H](Cc1ccc(Cl)cc1)C(=O)O; hArg = N=C(N)NCCCC[C@H](N)C(=O)O; X1 = O=C(CC1CCN([*:1])CC1)[*:2]; Tle = CC(C)(C)[C@H](N)C(=O)O; Nle = CCCC[C@H](N)C(=O)O; Aib = CC(C)(N)C(=O)O; βAla = NCCC(=O)O

Key:
[1] = molecular target: T1, Fc-fusion protein of human PSMA (hPSMA-Fc) (Homo sapiens, UniProt Q04609); assay: Surface plasmon resonance assay (Biacore T200, single cycle kinetic); format: binding; details: read-out: pKD CAT (converted)
T1 construct: purchased Acro Biosystems PSA-H5264
T1 sequence (Q04609 44-750 limits assumed): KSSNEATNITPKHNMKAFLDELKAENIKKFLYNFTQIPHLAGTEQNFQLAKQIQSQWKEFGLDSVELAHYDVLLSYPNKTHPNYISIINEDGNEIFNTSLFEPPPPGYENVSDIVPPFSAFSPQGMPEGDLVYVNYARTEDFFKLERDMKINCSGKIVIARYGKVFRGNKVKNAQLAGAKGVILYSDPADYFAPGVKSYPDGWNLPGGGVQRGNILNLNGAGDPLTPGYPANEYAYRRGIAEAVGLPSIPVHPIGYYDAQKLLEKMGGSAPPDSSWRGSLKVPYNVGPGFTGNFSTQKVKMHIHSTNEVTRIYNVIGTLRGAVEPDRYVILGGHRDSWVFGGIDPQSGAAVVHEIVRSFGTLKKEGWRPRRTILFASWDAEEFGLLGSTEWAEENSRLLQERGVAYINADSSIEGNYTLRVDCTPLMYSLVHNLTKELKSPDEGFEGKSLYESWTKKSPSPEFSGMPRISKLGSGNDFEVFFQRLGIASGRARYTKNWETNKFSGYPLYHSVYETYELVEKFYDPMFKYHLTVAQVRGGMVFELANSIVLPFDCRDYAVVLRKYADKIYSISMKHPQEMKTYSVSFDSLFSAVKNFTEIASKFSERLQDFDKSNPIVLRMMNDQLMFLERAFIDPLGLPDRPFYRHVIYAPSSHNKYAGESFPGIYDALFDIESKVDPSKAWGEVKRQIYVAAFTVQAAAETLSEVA
Summary of the method: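 KD, expressed as pKD, came from 1:1 Langmuir fits of reference- and buffer-blank-subtracted SPR data. The runs were single-cycle kinetics at 25° C in HBST/0.1% DMSO over human PSMA-Fc, captured to ~1000 RU on a peptide-coated CM5 surface and regenerated with 10 mM glycine pH 1.5.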

[2] = molecular target: T2, PSMA-expressing C4-2 cells (Homo sapiens, UniProt Q04609); assay: FACS binding assay (competition with 50 nM PSM-0183); details: C4-2 cells, read-out: pIC50 [C4-2] CAT (converted)
T2 construct: PSMA-expressing C4-2 cells (ATCC, Cat. No. CRL-3314) were cultured in RPMI-1640; host or cells: C4-2 cells
T2 sequence (Q04609 whole entry): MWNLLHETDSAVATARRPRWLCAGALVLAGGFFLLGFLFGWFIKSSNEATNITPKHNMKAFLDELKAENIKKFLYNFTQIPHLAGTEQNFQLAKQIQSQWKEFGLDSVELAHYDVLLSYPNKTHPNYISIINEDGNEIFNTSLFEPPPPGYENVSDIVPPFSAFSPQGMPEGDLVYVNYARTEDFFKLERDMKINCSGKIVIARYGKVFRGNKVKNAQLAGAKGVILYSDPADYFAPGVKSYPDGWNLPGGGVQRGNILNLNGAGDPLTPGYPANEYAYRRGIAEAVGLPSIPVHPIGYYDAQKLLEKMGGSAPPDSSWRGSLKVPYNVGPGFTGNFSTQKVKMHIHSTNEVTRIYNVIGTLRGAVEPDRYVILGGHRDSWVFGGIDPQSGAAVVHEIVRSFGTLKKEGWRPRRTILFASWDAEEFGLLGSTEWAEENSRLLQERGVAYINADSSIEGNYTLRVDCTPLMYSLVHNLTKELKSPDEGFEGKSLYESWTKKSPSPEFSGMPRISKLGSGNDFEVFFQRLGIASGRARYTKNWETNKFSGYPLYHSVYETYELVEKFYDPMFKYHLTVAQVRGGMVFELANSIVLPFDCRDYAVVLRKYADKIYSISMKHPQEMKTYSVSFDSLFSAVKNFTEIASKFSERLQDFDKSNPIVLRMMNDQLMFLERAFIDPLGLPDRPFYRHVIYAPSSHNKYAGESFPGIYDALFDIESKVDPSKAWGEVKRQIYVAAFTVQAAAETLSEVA
Summary of the method: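 Competition format: fluorescent tracer PSM-0183 (50 nM) displaced from PSMA on C4-2 cells by a test compound titration over 1 h at 4 °C. Bound tracer was quantified as flow-cytometric AF488 median fluorescence after washing. Four-parameter logistic fits of MFI data gave IC50 and pIC50.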

[3] = SPR, hPSMA-Fc, single cycle kinetic, 25° C., category
[4] = FACS binding, competition with 50 nM PSM-0183, category
[5] = pKD category for PSMA SPR activity assay, hPSMA-Fc, 25° C.

SMILES | Kd [1, 3] [nM] | IC50 [2, 4] [nM] | Kd [1, 5] [nM] | IC50 ([2]; pIC50 category of FACS binding) [nM] | also measured
C[C@@H](O)[C@H](NC(=O)[C@@H](NC(=O)[C@@H]1CSSC[C@H](NC(=O)[C@H](Cc2ccc(Cl)cc2)NC(=O)C(C)(C)NC(=O)[C@@H](NC(=O)CC2CCN(C(=O)CN3CCN(CC(=O)O)CCN(CC(=O)O)CCN(CC(=O)O)CC3)CC2)[C@@H](C)O)C(=O)N[C@@H](CCCCNC(=N)N)C(=O)N[C@@H](CCCNC(=N)N)C(=O)NC(C)(C)C(=O)N[C@@H](CC(N)=O)C(=O)N1)C(C)(C)C)C(N)=O [PSM-0225, DOTA-Cmp-Thr-Aib-Pcf-[Cys-Har-Arg-Aib-Asn-Cys]-Tle-Thr-NH2] ({DOTA}-[X1]T[Aib][Phe(4-Cl)]C[hArg]R[Aib]NC[Tle]T-NH2; disulfide 5-10) | < 12.6 | < 200 |  |  | 
CC(=O)N[C@H](C(=O)NC(C)(C)C(=O)N[C@@H](Cc1ccc(Cl)cc1)C(=O)N[C@H]1CSSC[C@@H](C(=O)N[C@H](C(=O)N[C@H](C(=O)N[C@H](CCCCNC(=O)CC2CCN(C(=O)CN3CCN(CC(=O)O)CCN(CC(=O)O)CCN(CC(=O)O)CC3)CC2)C(N)=O)[C@@H](C)O)C(C)(C)C)NC(=O)[C@H](CC(N)=O)NC(=O)C(C)(C)NC(=O)[C@H](CCCNC(=N)N)NC(=O)[C@H](CCCCN)NC1=O)[C@@H](C)O [PSM-0190, Ac-Thr-Aib-Pcf-[Cys-Lys-Arg-Aib-Asn-Cys]-Tle-Thr-lys(DOTA-Cmp)-NH2] (Ac-T[Aib][Phe(4-Cl)]CKR[Aib]NC[Tle]T[dK](Acetyl(1-DOTA-4-piperidyl))-NH2; disulfide 4-9) | < 12.6 | < 200 |  |  | 
CCCC[C@H](NC(=O)[C@@H]1CSSC[C@H](NC(=O)[C@H](Cc2ccccc2)NC(=O)C(C)(C)NC(=O)[C@@H](NC(C)=O)[C@@H](C)O)C(=O)N[C@@H](CCCCN)C(=O)N[C@@H](CCCNC(=N)N)C(=O)N[C@@H](C)C(=O)N[C@@H](CC(N)=O)C(=O)N1)C(=O)N[C@H](C(=O)N[C@@H](CC(=O)O)C(N)=O)[C@@H](C)O [PSM-0501, Ac-Thr-Aib-Phe-[Cys-Lys-Arg-Ala-Asn-Cys]-Nle-Thr-Asp-NH2] (Ac-T[Aib]FCKRANC[Nle]TD-NH2; disulfide 4-9) |  |  | < 12.6 | < 200 | 
CC(=O)N[C@H](C(=O)NC(C)(C)C(=O)N[C@@H](Cc1ccccc1)C(=O)N[C@H]1CSSC[C@@H](C(=O)N[C@H](C(=O)NCC(N)=O)C(C)(C)C)NC(=O)[C@H](CC(N)=O)NC(=O)C(C)(C)NC(=O)[C@H](CCCNC(=N)N)NC(=O)[C@H](CCCCN)NC1=O)[C@@H](C)O [PSM-0477, Ac-Thr-Aib-Phe-[Cys-Lys-Arg-Aib-Asn-Cys]-Tle-Gly-NH2] (Ac-T[Aib]FCKR[Aib]NC[Tle]G-NH2; disulfide 4-9) |  |  | < 12.6 | < 200 | 
CCCC[C@H](NC(=O)[C@@H]1CSSC[C@H](NC(=O)[C@H](Cc2ccccc2)NC(=O)[C@H](C)NC(=O)[C@@H](NC(C)=O)[C@@H](C)O)C(=O)N[C@@H](CCCCN)C(=O)N[C@@H](CCCNC(=N)N)C(=O)N[C@@H](C)C(=O)N[C@@H](CC(N)=O)C(=O)N1)C(=O)N[C@H](C(=O)N[C@@H](C)C(N)=O)[C@@H](C)O [PSM-0562, Ac-Thr-Als-Phe-[Cys-Lys-Arg-Ala-Asn-Cys]-Nle-Thr-Ala-NH2] (Ac-TAFCKRANC[Nle]TA-NH2; disulfide 4-9) |  |  |  |  | Kd ([1]; PSMA SPR assay, category): 126 to 501 nM; IC50 ([2]; FACS binding, category): 200 to 1260 nM
C[C@@H](O)[C@H](NC(=O)[C@@H](NC(=O)[C@@H]1CSSC[C@H](NC(=O)[C@H](Cc2ccccc2)NC(=O)C(C)(C)NC(=O)CCNC(=O)CN2CCN(CC(=O)O)CCN(CC(=O)O)CCN(CC(=O)O)CC2)C(=O)N[C@@H](CCCCN)C(=O)N[C@@H](CCCNC(=N)N)C(=O)NC(C)(C)C(=O)N[C@@H](CC(N)=O)C(=O)N1)C(C)(C)C)C(N)=O [PSM-0437, DOTA-Bal-Aib-Phe-[Cys-Lys-Arg-Aib-Asn-Cys]-Tle-Thr-NH2] ({DOTA-βAla}-[Aib]FCKR[Aib]NC[Tle]T-NH2; disulfide 3-8) |  |  | 12.6 to 126 | < 200 | 
